{"source": "ChEMBL document CHEMBL5465560", "about": "“Selectivity Literature for EUbOPEN Chemogenomic Library” (2024)", "key": {"[1]": {"target": "T1, Mitogen-activated protein kinase kinase kinase 6 (Homo sapiens) (UniProt O95382)", "T1 sequence (whole entry)": "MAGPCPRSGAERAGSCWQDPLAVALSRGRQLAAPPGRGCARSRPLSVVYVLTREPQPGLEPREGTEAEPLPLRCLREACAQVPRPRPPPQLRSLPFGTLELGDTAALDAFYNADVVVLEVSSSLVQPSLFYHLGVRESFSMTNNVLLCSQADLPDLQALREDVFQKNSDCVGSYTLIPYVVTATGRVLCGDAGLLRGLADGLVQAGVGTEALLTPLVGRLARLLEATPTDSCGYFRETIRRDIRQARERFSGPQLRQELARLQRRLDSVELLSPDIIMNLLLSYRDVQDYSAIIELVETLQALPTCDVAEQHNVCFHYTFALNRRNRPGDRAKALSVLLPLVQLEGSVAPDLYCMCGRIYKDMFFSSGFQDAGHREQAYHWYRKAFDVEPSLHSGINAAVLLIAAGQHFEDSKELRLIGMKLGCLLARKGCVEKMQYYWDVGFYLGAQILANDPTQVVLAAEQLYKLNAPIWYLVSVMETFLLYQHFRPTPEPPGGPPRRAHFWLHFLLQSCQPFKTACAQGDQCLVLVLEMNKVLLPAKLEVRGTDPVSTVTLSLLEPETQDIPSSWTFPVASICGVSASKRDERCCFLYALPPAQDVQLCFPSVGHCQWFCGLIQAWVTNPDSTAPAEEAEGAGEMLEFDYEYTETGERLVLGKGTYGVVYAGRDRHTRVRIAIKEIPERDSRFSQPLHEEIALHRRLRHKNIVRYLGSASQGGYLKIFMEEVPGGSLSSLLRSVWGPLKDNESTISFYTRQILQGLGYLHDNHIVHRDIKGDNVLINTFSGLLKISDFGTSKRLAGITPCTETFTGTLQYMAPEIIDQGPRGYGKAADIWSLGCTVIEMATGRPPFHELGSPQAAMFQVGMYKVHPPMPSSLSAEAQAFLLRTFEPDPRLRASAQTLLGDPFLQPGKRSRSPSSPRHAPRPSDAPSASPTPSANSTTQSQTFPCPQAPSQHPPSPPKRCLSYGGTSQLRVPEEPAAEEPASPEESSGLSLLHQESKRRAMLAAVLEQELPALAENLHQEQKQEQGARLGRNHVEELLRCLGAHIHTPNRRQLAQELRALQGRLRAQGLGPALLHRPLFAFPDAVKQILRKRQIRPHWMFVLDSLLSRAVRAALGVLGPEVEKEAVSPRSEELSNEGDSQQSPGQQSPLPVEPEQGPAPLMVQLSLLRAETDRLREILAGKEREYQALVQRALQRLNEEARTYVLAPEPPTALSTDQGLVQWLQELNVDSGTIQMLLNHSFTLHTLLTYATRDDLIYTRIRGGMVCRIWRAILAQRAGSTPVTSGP", "experiment": "Selectivity interaction (ActivX KiNativ screen (kinase selectivity in THP-1 cell lysates)) EUB0000639a MAP3K6", "type": "subcellular", "details": "lysate, at 5 µM"}, "[2]": {"target": "T2, Serine/threonine-protein kinase BRSK2 (Homo sapiens) (UniProt Q8IWQ3)", "T2 sequence (whole entry)": "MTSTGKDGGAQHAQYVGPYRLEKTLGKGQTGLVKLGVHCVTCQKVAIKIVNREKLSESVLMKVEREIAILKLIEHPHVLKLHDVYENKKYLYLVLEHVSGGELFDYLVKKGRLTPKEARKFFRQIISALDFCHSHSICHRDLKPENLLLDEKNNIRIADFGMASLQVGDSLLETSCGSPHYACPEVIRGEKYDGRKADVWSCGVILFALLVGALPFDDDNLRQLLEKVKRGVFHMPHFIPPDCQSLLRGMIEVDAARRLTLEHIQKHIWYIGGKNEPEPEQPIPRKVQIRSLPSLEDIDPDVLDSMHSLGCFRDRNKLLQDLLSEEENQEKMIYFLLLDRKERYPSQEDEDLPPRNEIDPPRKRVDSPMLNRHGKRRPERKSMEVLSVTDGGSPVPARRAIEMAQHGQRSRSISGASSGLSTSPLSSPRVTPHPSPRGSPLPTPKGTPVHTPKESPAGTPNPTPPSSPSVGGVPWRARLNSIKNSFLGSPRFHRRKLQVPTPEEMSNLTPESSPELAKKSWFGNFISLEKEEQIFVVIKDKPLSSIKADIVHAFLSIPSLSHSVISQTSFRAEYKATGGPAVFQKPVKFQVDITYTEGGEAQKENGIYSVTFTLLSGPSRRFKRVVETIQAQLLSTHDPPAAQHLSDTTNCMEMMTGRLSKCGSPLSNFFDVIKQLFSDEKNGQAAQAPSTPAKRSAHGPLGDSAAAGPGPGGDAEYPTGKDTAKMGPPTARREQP", "details": "at 10 µM"}, "[3]": {"target": "Leukocyte tyrosine kinase receptor (Homo sapiens, UniProt P29376)", "sequence (P29376 whole entry)": "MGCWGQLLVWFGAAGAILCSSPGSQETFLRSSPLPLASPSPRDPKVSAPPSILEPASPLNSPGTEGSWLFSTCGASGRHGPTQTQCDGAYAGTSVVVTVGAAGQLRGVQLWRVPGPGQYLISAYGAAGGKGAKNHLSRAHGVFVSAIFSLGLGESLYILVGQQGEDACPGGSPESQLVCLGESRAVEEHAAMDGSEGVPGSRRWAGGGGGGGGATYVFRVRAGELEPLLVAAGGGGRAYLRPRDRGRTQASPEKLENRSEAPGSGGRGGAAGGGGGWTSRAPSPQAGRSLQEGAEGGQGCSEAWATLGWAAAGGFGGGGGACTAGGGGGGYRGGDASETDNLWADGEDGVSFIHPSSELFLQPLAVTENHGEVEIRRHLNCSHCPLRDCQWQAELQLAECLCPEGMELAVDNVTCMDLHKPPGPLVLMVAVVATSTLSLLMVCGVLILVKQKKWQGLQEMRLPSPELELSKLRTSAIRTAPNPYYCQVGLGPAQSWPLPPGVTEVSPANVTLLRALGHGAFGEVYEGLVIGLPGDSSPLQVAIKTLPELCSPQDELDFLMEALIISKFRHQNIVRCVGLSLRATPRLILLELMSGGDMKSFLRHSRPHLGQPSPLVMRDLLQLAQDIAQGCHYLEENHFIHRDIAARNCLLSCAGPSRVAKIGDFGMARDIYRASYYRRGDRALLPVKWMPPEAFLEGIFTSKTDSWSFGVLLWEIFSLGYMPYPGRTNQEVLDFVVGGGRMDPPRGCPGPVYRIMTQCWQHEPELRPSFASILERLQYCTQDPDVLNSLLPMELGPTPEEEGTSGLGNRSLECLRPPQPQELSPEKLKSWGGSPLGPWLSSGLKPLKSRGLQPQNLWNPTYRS", "experiment": "Selectivity interaction (KinomeScan (DiscoverX)) EUB0000229b LTK", "details": "at 10 µM"}, "[4]": {"target": "Tyrosine-protein kinase Fes/Fps (Homo sapiens) (UniProt P07332)", "sequence (P07332 whole entry)": "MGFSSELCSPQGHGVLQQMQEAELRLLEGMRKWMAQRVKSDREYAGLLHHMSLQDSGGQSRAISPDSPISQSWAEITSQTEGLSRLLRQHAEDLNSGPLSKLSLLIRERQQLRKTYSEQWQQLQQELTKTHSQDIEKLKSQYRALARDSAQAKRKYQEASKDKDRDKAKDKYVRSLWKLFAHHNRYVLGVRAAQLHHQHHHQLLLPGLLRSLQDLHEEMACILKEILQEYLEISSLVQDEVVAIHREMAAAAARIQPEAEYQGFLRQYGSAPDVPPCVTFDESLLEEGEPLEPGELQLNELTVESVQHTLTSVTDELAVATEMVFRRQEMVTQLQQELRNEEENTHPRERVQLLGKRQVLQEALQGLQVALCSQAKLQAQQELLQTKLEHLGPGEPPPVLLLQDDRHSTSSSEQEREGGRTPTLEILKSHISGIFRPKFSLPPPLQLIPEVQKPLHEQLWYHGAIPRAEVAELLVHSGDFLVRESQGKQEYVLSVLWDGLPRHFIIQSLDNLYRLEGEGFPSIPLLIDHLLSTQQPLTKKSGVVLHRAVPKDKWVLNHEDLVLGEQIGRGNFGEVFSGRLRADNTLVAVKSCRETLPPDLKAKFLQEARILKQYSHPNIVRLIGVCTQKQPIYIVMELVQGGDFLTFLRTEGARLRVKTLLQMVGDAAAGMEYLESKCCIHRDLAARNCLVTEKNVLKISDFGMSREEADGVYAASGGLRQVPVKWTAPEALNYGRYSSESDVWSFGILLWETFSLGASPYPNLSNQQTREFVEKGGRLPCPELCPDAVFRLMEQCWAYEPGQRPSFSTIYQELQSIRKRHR", "experiment": "Selectivity interaction (KinomeScan (DiscoverX)) EUB0001619a FES", "details": "at 1 µM"}, "[5]": {"target": "Mitogen-activated protein kinase 10 (Homo sapiens, UniProt P53779)", "sequence (P53779 whole entry)": "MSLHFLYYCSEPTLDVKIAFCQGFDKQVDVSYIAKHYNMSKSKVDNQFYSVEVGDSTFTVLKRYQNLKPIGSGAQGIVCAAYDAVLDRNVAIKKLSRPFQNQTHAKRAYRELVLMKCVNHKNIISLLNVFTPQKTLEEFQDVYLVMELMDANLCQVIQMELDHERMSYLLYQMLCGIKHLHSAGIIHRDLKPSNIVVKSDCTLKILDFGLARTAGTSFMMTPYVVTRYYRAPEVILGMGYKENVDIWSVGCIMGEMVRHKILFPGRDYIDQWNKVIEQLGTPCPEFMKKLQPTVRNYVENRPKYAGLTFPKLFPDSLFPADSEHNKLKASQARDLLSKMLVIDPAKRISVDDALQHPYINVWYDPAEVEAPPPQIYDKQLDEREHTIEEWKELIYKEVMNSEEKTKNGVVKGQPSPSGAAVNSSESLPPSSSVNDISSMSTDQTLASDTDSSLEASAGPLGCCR", "experiment": "Selectivity interaction (KinomeScan (DiscoverX)) EUB0000618a MAPK10", "details": "at 10 µM"}, "[6]": {"target": "T3, Cyclin-dependent kinase-like 2 (Homo sapiens) (UniProt Q92772)", "T3 sequence (whole entry)": "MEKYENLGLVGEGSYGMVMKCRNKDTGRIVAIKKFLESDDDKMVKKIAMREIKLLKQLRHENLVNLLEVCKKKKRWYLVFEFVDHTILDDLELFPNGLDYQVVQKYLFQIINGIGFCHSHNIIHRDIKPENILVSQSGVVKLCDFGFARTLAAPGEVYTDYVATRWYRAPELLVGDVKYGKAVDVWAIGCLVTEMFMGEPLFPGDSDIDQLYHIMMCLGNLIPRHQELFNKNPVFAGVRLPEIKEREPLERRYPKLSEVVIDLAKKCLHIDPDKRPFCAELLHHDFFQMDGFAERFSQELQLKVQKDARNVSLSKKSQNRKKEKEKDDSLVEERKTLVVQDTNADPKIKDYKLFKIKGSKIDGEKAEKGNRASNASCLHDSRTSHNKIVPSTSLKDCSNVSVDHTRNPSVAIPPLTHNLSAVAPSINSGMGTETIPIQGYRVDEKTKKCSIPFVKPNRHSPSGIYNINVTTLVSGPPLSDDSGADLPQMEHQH", "experiment": "Selectivity interaction (KinomeScan (DiscoverX)) EUB0000666a CDKL2", "details": "at 10 µM"}, "[7]": {"target": "Serine/threonine-protein kinase 38 (Homo sapiens) (UniProt Q15208)", "sequence (Q15208 2-465 limits assumed)": "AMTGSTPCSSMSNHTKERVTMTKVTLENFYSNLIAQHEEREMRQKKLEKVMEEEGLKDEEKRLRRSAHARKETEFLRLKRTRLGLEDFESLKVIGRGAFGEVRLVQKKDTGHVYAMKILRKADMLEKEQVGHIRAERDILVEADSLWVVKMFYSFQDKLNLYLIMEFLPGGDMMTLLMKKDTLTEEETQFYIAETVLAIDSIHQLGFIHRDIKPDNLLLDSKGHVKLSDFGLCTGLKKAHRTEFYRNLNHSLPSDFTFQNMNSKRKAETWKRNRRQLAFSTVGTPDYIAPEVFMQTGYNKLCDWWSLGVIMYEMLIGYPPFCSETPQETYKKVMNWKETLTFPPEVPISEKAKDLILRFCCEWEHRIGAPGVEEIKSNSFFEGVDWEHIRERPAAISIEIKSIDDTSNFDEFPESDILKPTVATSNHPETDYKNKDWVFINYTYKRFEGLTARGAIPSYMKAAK", "experiment": "Selectivity interaction (KinomeScan (DiscoverX)) EUB0000666a STK38", "details": "at 10 µM"}}}
{"smiles": "CC[C@@H]1[C@H](F)C(=O)N[C@@H]1COc1nccc2cc(C(N)=O)c(OC)cc12", "note": "[ZIMLOVISERTIB]", "values": [{"measurement": "% of inhibition", "setting": "[1]", "value": -27, "unit": "%"}]}
{"smiles": "COCC(=O)NC/C=C/c1ccc2ncnc(Nc3ccc(Oc4ccc(C)nc4)c(C)c3)c2c1", "note": "[CP-724714]", "values": [{"measurement": "% of control", "setting": "[2]", "value": 100, "unit": "%"}]}
{"smiles": "COc1cc(N(C)c2ccnc3ccc(C(F)(F)F)cc23)cc(OC)c1OC", "values": [{"measurement": "% binding", "setting": "[3]", "value": 96, "unit": "%"}]}
{"smiles": "N#Cc1cccc(-c2c[nH]c3ncnc(N4CCOCC4)c23)c1", "values": [{"measurement": "% of control", "setting": "[4]", "value": 100, "unit": "%"}]}
{"smiles": "O[C@H]1CC[C@H](Nc2ncc3nc(Nc4c(F)cc(F)cc4F)n([C@H]4CCOC4)c3n2)CC1", "values": [{"measurement": "% of control", "setting": "[5]", "value": 0, "unit": "%"}]}
{"smiles": "O=C(NOC[C@H](O)CO)c1ccc(F)c(F)c1Nc1ccc(I)cc1F", "values": [{"measurement": "% of control", "setting": "[6]", "value": 87, "unit": "%"}, {"measurement": "% of control", "setting": "[7]", "value": 100, "unit": "%"}]}
